Reference: the METLIN SMRT retention time set (Domingo-Almenara et al. 2019)

Assay: gradient 5% acetonitrile 3 min, to 50% in 2 min, to 85% in 15 min, held 3 min, 100 µL/min
Conditions: column: Zorbax Extend-C18 2.1 x 50 mm; eluents: water / acetonitrile, 0.1% formic acid
Method in brief: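 Pure standards were analyzed in mixtures of ~100 molecules using HPLC coupled to a quadrupole time-of-flight mass spectrometer, in both positive and negative ionization mode. Separation used a Zorbax Extend-C18 column (2.1 × 50 mm, 1.8 μm) at 100 μL/min, with water and acetonitrile each containing 0.1% formic acid. Dead and dwell volumes were 40 μL and 900 μL, and data were collected over 3 months. Retention time was read from computationally picked adduct peaks, each inspected manually.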

Row | SMILES | RP-LC retention time [s]
1 | COc1ccc(OC)c(Nc2c(-c3ccc(N(C)C)cc3)nc3cnccn23)c1 | 796
2 | O=S(=O)(Cc1ccccc1)N1CCC(OCCOc2cccnc2)CC1 | 665
3 | CCOC(=O)Nc1ccc(C(=O)/C=C/c2ccccc2)cc1 | 1000
4 | Cc1cc(N2CCOCC2)nc(N2CCN(C(=O)c3ccc(C)c(C)c3)CC2)n1 | 646
5 | O=C(N[C@H]1C[C@@H]2C[C@H]1N(C(=O)c1cccc(C(F)(F)F)c1)C2)c1cccs1 | 839
6 | CN1CCN(S(=O)(=O)c2ccc3nn(Cc4cccc(F)c4)c(=O)n3c2)CC1 | 964
7 | O=C(NCCN1CCOCC1)C1CN(C(=O)c2ccccc2)CC12CCCCC2 (stereo not drawn) | 605
8 | O=S(=O)(c1cc(-c2noc(C3CC3)n2)cs1)N1CCN(c2ccccn2)CC1 | 719
9 | CCOc1ccc(-c2nc(-c3ccc(NS(=O)(=O)c4cccs4)cc3)no2)cc1 | 1170
10 | O=C(CCN1CCN(CCO)CC1)N1c2ccccc2Sc2ccc(C(F)(F)F)cc21 | 673
11 | CCc1cccc(NC(=O)C2CCCN2S(=O)(=O)c2cc3c(cc2Cl)NC(=O)CO3)c1 (stereo not drawn) | 836
12 | O=C(Cc1cc(-c2cc3ccccc3o2)on1)NCCc1c[nH]c2ccccc12 | 883
13 | CC1Oc2ccccc2OC1C(=O)Nc1cccc(C(F)(F)F)c1 (stereo not drawn) | 1050
14 | CN1CCn2cc(S(=O)(=O)Nc3cccc(Cl)c3)cc2C1=O | 709
15 | CC(C)Cc1ccc([C@@H](C)C(=O)NS(C)(=O)=O)cc1 | 1070
16 | O=C(NCCc1ccco1)c1cc2n(n1)CCCN(Cc1cccc(F)c1)C2=O | 751
17 | Cc1cc(NC(=O)C2CCN(C(=O)c3cnn(-c4ccccc4)c3C)CC2)no1 | 657
18 | CCCn1c(CCc2ccccc2NS(=O)(=O)c2cnn(CC)c2)nc2ccccc21 | 680
19 | COc1cc(OC)c(NC(=O)N2CCc3c(c(C(=O)N4CCOCC4)nn3C)C2)cc1Cl | 692
20 | CC(=O)c1ccc(NC(=O)COc2cc(C)nc(-c3ccc(F)cc3)n2)cc1 | 938
21 | COc1ccc(-c2nc3cc(C)ccn3c2NC(=O)c2cc(OC)c(OC)c(OC)c2)cc1 | 664
22 | Cc1csc(NC(=O)Cn2c(=O)n(C(C)C)c3ccc(-c4noc(C)n4)cc32)n1 | 780

Row | SMILES | RP-LC retention time [s]
23 | CS(=O)(=O)Nc1cccc(NC(=O)c2ccc(N3CCOCC3)nn2)c1 | 633
24 | O=C(C1CC1)N1CCN(c2ccc(=O)n(-c3cccc(Cl)c3)n2)CC1 | 738
25 | CC(Cc1cccc(C(F)(F)F)c1)NCCCc1ccccc1 (stereo not drawn) | 868
26 | Cc1ccc(-c2cn3nc(N4CCCC(C(=O)N5CCOCC5)C4)sc3n2)cc1 (stereo not drawn) | 800
27 | CN(C)CCNC(=O)c1ccc2c(c1)nnn2Cc1ccccc1 | 567
28 | O=C(c1cc2ccccc2[nH]1)N1CCN(Cc2nc3ccccc3[nH]2)CC1 | 576
29 | c1cc(-c2nc(-c3ccc(OC4CNC4)cc3)no2)ccn1 | 604
30 | Fc1ccc(CN2CCC3(CC2)N=C(C2CC2)NO3)cc1 | 583
31 | CN(C(=O)c1ccc2c(c1)OCO2)C1CCc2nn(CC3CC3)c(=O)n2CC1 (stereo not drawn) | 670
32 | COC(=O)c1sccc1NC(=O)N1CCc2c([nH]c3ccccc23)C1c1ccc(F)cc1 (stereo not drawn) | 1300
33 | CNC(=O)c1ccc2c(c1)CCCN2C(=O)c1cccc(Cl)c1 | 746
34 | CCCN(C(=O)c1cccc(NC(=O)[C@H]2[C@@H]3C[C@@H]4[C@H]2C(=O)O[C@@H]4C3)c1)c1ccccc1F | 853
35 | COc1ccc(Cc2nc(-c3cccc(-c4ccn[nH]4)c3)no2)cc1 | 911
36 | C=CCN1CC(c2nc3ccccc3n2CC(O)COc2cccc(C)c2)CC1=O (stereo not drawn) | 721
37 | CO[C@H]1C(=O)N(C(C)C)[C@H]1C1CCN(C(=O)C2CC2)CC1 | 657
38 | CN(C)CCNC(=O)C1CCCN(c2ccc(=O)n(-c3cccc(Cl)c3)n2)C1 (stereo not drawn) | 929
39 | Cc1ccc(/C=C/S(=O)(=O)N2CC(c3nc(-c4cccs4)no3)C2)cc1 | 996
40 | Cn1nnnc1SCCNCc1ccc2c(c1)OCCO2 | 577
41 | CC(NC(=O)c1ccccc1)C(=O)N1CCN(c2cc(C(C)C)n3cnnc3n2)CC1 (stereo not drawn) | 604
42 | Cc1ccc(-c2ncc3c(=O)n(CC(=O)NC(C)C)c(=O)n(C)c3n2)cc1 | 854
43 | COC(=O)c1cccc(C(=O)Nc2ccccc2)n1 | 800
44 | O=C(NC1CCCCCC1)c1ccnc(N2CCNC(c3ccccc3)C2)c1 (stereo not drawn) | 684

Row | SMILES | RP-LC retention time [s]
45 | CC(C)n1cnc(S(=O)(=O)N2CCCC(C(=O)Nc3ccccc3F)C2)c1 (stereo not drawn) | 772
46 | CS(=O)(=O)N1CCC(C(=O)NCc2ccccc2)Oc2ccccc21 (stereo not drawn) | 807
47 | CN(C)S(=O)(=O)c1ccc(-c2nnc(C(=O)NCc3ccc(C(F)(F)F)cc3)o2)cc1 | 940
48 | Cc1cccc(-n2c(N3CCCC(C(=O)NCc4ccccc4)C3)nc3ccsc3c2=O)c1 (stereo not drawn) | 880
49 | O=C(Cn1c(=O)n(-c2ccc(F)cc2)c2ncccc21)NCCN1CCCCCC1 | 625
50 | COc1ccc(CNC(=O)Nc2cc3c(cc2Oc2ccccc2)n(C)c(=O)n3C)cc1 | 840
51 | COc1ccccc1C1(CNC(=O)Cc2ccccc2Cl)CCOCC1 | 817
52 | COC(=O)c1sccc1NC(=O)C1CCCN(c2ncnc3c2nc2n3CCCCC2)C1 (stereo not drawn) | 922
53 | Cc1ccc(-n2c(N3CCCC(C(=O)NC(C)c4ccc(F)cc4)C3)nc3ccsc3c2=O)cc1 (stereo not drawn) | 959
54 | COc1cccc(CNC(=O)C2CCCN2S(=O)(=O)c2cc3c(cc2C)NC(=O)C(C)O3)c1 (stereo not drawn) | 788
55 | O=C(c1cc(-c2cccnc2)n[nH]1)N1CCN(C(=O)c2cc3ccccc3[nH]2)CC1 | 633
56 | COc1cccc(-c2nc(N3CCCCC3)ncc2C(=O)O)c1 | 950
57 | COCCN1C(=O)CCc2cc(NC(=O)C(C)(C)C)ccc21 | 707
58 | COCc1noc([C@@H]2CC(F)(F)CN2C(=O)C(C)C)n1 | 711
59 | CCC(Sc1nnc2c3ccccc3n(C(C)C)c2n1)C(=O)Nc1nc(-c2ccccc2)cs1 (stereo not drawn) | 1310
60 | Cc1cccc(Cn2nnc(C(=O)O)c2-c2cccnc2)c1 | 669
61 | COc1ccc(C2(C)NC(=O)N(CC(=O)N3CCc4ccccc43)C2=O)cc1 (stereo not drawn) | 750
62 | CC1CCN(c2cc(-c3noc(C(=O)NCCC4=CCCCC4)n3)ccn2)CC1 | 1100
63 | Cc1ccc(Nc2nc(C)cc(N3CCN(S(=O)(=O)c4ccc(F)c(F)c4)CC3)n2)cc1 | 808
64 | CCCN1C(=O)C(CC(=O)NC2CCCCC2)Sc2ncccc21 (stereo not drawn) | 803
65 | Cn1nc(C(=O)N2CCCC(C(=O)Nc3ccccc3)C2)c2c1CCN(C(=O)c1cccs1)C2 (stereo not drawn) | 730
66 | Cc1ccnc(N2CCC(C(=O)NCc3ccc4c(c3)OCO4)CC2)n1 | 658

Row | SMILES | RP-LC retention time [s]
67 | Cc1ccc(N2CN(CC(=O)N3CCCc4ccccc43)S(=O)(=O)c3cccnc32)cc1 | 1030
68 | COc1ccccc1C1=NS(=O)(=O)c2cc(S(=O)(=O)N3CCOCC3)ccc2N1 | 718
69 | CCc1noc(-c2ccnc(-n3cnc(C(=O)NCc4ccccc4)c3)c2)n1 | 866
70 | CCOc1ccc(NC(=O)c2cc(C)n3nccc3n2)cc1 | 917
71 | O=c1[nH]c2ccc(NCc3ccc(-c4ccccc4F)o3)cc2[nH]1 | 687
72 | Cn1cccc1C(=O)N1CCC2(CC1)NC(=O)N(Cc1ccccc1Cl)C2=O | 790
73 | COc1ccc(-c2c(C(=O)NC(C)C)nc3ccccn23)cc1 | 676
74 | Cc1ccc(C(=O)Nc2ccccc2[N+](=O)[O-])cc1 | 967
75 | CCc1cc(C(=O)Nc2ccc(OC)cc2C)nc2ccnn12 | 970
76 | O=C(NC1CC1)[C@@H]1C[C@H](Oc2ccccc2)CN1C(=O)CCc1c[nH]c2ccccc12 | 792
77 | CCOc1ccc(S(=O)(=O)N2CCC(c3nc(C(=O)N4CCCC4)c(C)o3)CC2)cc1 | 941
78 | O=C(NCc1cc(-c2ccco2)on1)c1ncc(-c2ccccc2)o1 | 863
79 | COC(=O)CNC(=O)Nc1cc(F)c2nc(N3CCOCC3)ccc2c1 | 620
80 | CC1CCN(S(=O)(=O)c2cc(C(=O)Nc3ccc(F)c(Cl)c3)n(C)c2)CC1 | 1170
81 | C/C(=C\c1csc(C)n1)C1C[C@@H]2O[C@@H]2CCC[C@H](C)[C@H](O)[C@@H](C)C(=O)C(C)(C)[C@@H](O)CC(=O)O1 (stereo partly drawn) | 874
82 | COc1ccccc1-n1nnc(C(=O)N2CCc3ccccc32)c1-c1ccccn1 | 836
83 | O=C(CCc1nc(N2CCCCC2)c2c(-c3ccccc3)noc2n1)NC1CC1 | 909
84 | Cc1cc(Cl)ccc1OCC(=O)Nc1nc(-c2ccc(F)cc2)cs1 | 1190
85 | COC(=O)C1=CN(C2CC2)c2cc(N3CCN(C)CC3)c(F)cc2S1(=O)=O | 955
86 | COC(=O)CNC(=O)Nc1ccccc1-c1cc2ccccc2[nH]1 | 810
87 | CCc1ccc(CN2C(=O)CN(S(C)(=O)=O)CC2(C)C(=O)NC2CCCCCCC2)cc1 (stereo not drawn) | 1040
88 | COC(=O)c1cccc(C(=O)N2CCc3ccccc32)n1 | 797
